From US8349851B2, “JAK kinase modulating compounds and methods of use thereof” (Ambit Biosciences Corp., priority 2009, dated 2013)
Counter-ions that a name gives are not always drawn.

What was measured:
JAK2 = target: T1, JAK2 (Homo sapiens, UniProt O60674); test: Competition binding assay, JAK2; conditions: read-out: Binding Assay: JAK2 (active_KD)
T1 construct: made in house
Excerpt: (§1) Competition Binding Assay to Determine Binding Constants (Kd) of the Compounds Against JAK Kinases
(§2) Competition binding assays used herein were developed, validated and performed as described in Fabian et al., Nature Biotechnology 2005, 23,329-336. Kinases were produced as fusions to T7 phage (See, Fabian et al. or WO04/015142) or alternatively, the kinases were expressed in HEK-293 cells and subsequently tagged with DNA for PCR detection (See, WO08/005310). For the binding assays, streptavidin-coated magnetic beads were treated with biotinylated affinity ligands for 30 min at rt to generate affinity resins. The liganded beads were blocked with excess biotin and washed with blocking buffer (SeaBlock (Pierce), 1% BSA, 0.05% Tween 20, 1 mM DTT) to remove unbound ligand and to reduce non-specific binding. […] Test compounds were prepared as 100× stocks in DMSO and rapidly diluted into the aqueous environment. DMSO was added to control assays lacking a test compound. Primary screen interactions were performed in polypropylene 384-well plates in a final volume of 34 μL, while Kd determinations were performed in polystyrene 96-well plates in a final volume of 135 μL. […] The kinase concentration in the eluates was measured by quantitative PCR. Each kinase was tested individually against each compound. Kds were determined using eleven serial threefold dilutions. A selectivity score, which is a quantitative measure of selectivity of a compound against a panel of enzymes, may be calculated for a compound by dividing the number of enzymes for which a compound meets a set criteria, (for example, a binding constant of 100 nM or less), by the total number of enzymes tested.

[1] = tested on: csTF-1 cells (GM-CSFR/JAK2/STAT5 pathway); test: csTF-1 cell-based reporter assay; design: species or system human; conditions: Homo sapiens; GM-CSF at 2 ng/mL, 4 hours; read-out: Cell Assay: CS0017: CS TF-1 reporter assay: IC50
Protocol: csTF-1 Cell-based Reporter Assay
csTF-1 cells are derived from the human erythroleukemia cell line that is growth dependent on GM-CSF and has an intact GM-CSFR/JAK2/STAT5 pathway. The cell line contains stably integrated beta-lactamase reporter gene under the control of the […] (irf 1) response element recognized by the activated transcription factor STATS. csTF-1 cells (Invitrogen K1219) were washed with assay media (97% OPTIMEM/0.5% dialyzed FBS/0.1 mM NEAA/1 mM Na pyr/P/S) and seeded in the same media at 5×10^5 cell/mL in T150 flask. After 16 hour incubation, cells were seeded at 2×10^5 cell/well in 50 μl volume, into Costar, clear bottom, 96-well assay plates. Serial dilutions of compounds were added to the plates with final DMSO concentration at 0.5% and GM-CSF at 2 ng/mL and the plates were then incubated at […] and 5% CO2 for 4 hours. The plates were brought to room temperature before adding Substrate Mixture according to manufacturer's protocol (Invitrogen, Catalog #K1085). The assay plates containing the substrate mixture were incubated in the dark at room temperature for 2 hours. Blue and green fluorescence was measured with excitation at 409 nm and emission at 460 nm (for blue) and excitation at 409 nm and emission at 530 nm (for green) using Spectra Max Gemini EM.

JAK3 = target: T2, JAK3 (Homo sapiens, UniProt P52333); test: Competition binding assay, JAK3; conditions: read-out: Binding Assay: JAK3 (active_KD, ENZ)
T2 construct: made in house
Excerpt: as §1, §2

AuroraB = target: T3, AuroraB (Homo sapiens, UniProt Q96GD4); test: Competition binding assay, Aurora B
T3 construct: made in house
Excerpt: Methods for determining binding constant against Aurora B kinase are known to one of skill in the art. Exemplary methods are described in U.S. provisional application No. 61/294,413, and Fabian et al., Nature Biotechnology 2005, 23,329-336.
as §2

T1 sequence (O60674 849-1124 limits assumed): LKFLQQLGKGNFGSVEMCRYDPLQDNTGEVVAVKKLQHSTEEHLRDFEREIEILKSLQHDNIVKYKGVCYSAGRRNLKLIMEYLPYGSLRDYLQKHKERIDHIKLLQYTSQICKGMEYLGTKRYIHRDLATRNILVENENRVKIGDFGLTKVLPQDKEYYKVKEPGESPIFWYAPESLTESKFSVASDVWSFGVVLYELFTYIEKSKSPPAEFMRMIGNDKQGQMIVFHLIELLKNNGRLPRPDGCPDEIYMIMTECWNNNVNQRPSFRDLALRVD
T2 sequence (P52333 822-1111 limits assumed): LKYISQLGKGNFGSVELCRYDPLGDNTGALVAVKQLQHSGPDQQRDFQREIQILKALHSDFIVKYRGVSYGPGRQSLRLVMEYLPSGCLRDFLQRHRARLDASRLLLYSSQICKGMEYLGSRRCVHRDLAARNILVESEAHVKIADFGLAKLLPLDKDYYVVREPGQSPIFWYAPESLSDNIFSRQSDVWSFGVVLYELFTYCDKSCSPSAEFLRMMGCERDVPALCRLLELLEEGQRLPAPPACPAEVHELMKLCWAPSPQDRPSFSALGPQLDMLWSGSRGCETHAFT
T3 sequence (Q96GD4 whole entry): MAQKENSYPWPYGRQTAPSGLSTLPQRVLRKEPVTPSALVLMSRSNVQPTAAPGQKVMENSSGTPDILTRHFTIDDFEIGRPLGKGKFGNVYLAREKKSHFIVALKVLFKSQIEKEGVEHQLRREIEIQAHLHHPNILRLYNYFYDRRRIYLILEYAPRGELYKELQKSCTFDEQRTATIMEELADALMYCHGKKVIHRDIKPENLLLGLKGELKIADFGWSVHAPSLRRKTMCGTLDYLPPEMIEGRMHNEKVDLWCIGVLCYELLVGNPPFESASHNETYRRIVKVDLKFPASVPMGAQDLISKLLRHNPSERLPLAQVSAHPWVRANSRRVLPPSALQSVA

Compound | Kd (JAK2) [µM] | IC50 [1] [µM] | Kd (JAK3) [µM] | Kd (AuroraB) [µM]
Cc1ccc2c(Nc3cc(C)[nH]n3)nc(C(O)c3ccc(F)cc3)nc2c1 (racemic) [Example 25, (R,S)-(4-fluorophenyl)(7-methyl-4-(5-methyl-1H-pyrazol-3-ylamino)quinazolin-2-yl)methanol] | ≤ 0.001 | ≤ 0.1 | 0.01 to 0.1 | > 0.2
COc1ccc2c(Nc3cc(C)[nH]n3)nc(C(O)c3ccc(F)cc3)nc2c1 (racemic) [Example 31, (R,S)-(4-fluorophenyl)(7-methoxy-4-(5-methyl-1H-pyrazol-3-ylamino)quinazolin-2-yl)methanol] | ≤ 0.001 | ≤ 0.1 | 0.01 to 0.1 | > 0.2
Cc1cc(Nc2nc(C(=O)c3ccc(F)cc3)nc3cc(F)ccc23)n[nH]1 [Example 19, (7-fluoro-4-(5-methyl-1H-pyrazol-3-ylamino)quinazolin-2-yl)(4-fluorophenyl)methanone] | 0.001 to 0.01 | ≤ 0.1 | 0.01 to 0.1 | > 0.2
COc1ccc2c(Nc3cc[nH]n3)nc(C(=O)c3ccc(F)cc3)nc2c1 [Example 28, (4-(1H-pyrazol-3-ylamino)-7-methoxyquinazolin-2-yl)(4-fluorophenyl)methanone] | 0.001 to 0.01 | 0.1 to 0.5 | > 0.1 | > 0.2
COC(c1ccc(F)cc1)c1nc(Nc2cc(C)[nH]n2)c2ccccc2n1 (racemic) [Example 13, (R,S)-2-((4-fluorophenyl)(methoxy)methyl)-N-(5-methyl-1H-pyrazol-3-yl)quinazolin-4-amine] | ≤ 0.001 | 0.1 to 0.5 | 0.01 to 0.1 | > 0.2
Cc1cc(Nc2nc(C(O)c3ccc(F)cc3)nc3cc(O)ccc23)n[nH]1 (racemic) [Example 36, (R,S)-2-((4-fluorophenyl)(hydroxy)methyl)-4-(5-methyl-1H-pyrazol-3-ylamino)quinazolin-7-ol] | ≤ 0.001 | ≤ 0.1 | 0.01 to 0.1 | 0.02 to 0.05
Cc1cc(Nc2nc(C(=O)c3cccc(F)c3)nc3ccccc23)n[nH]1 [Example 1, (3-fluorophenyl)(4-(5-methyl-1H-pyrazol-3-ylamino)quinazolin-2-yl)methanone] | 0.001 to 0.01 | 0.1 to 0.5 | 0.01 to 0.1 | > 0.2
COc1ccc2c(Nc3cc[nH]n3)nc(C(F)(F)c3ccc(F)cc3)nc2c1 [Example 33, 2-(difluoro(4-fluorophenyl)methyl)-7-methoxy-N-(1H-pyrazol-3-yl)quinazolin-4-amine] | 0.001 to 0.01 | 0.1 to 0.5 | > 0.1 | 0.05 to 0.2
Cc1cc(Nc2nc(C(O)c3ccc(F)cc3)nc3cc(C(F)(F)F)ccc23)n[nH]1 (racemic) [Example 18, (R,S)-(4-fluorophenyl)(4-(5-methyl-1H-pyrazol-3-ylamino)-7-(trifluoromethyl)quinazolin-2-yl)methanol] | 0.001 to 0.01 | 0.1 to 0.5 | 0.01 to 0.1 | > 0.2
OC(c1ccc(F)cc1)c1nc(Nc2cc[nH]n2)c2ccccc2n1 (racemic) [Example 6, (R,S)-(4-(1H-pyrazol-3-ylamino)quinazolin-2-yl)(4-fluorophenyl)methanol] | ≤ 0.001 | ≤ 0.1 | 0.01 to 0.1 | > 0.2
Cc1cc(Nc2nc(C(F)(F)c3ccc(F)cc3)nc3c(F)cccc23)n[nH]1 [Example 34, 2-(difluoro(4-fluorophenyl)methyl)-8-fluoro-N-(5-methyl-1H-pyrazol-3-yl)quinazolin-4-amine] | ≤ 0.001 | ≤ 0.1 | 0.01 to 0.1 | > 0.2
Cc1cc(Nc2nc(C(O)c3ccc(F)cc3)nc3cc(OC4CCNCC4)ccc23)n[nH]1 (stereo not shown) [Example 41, (4-fluorophenyl)(4-(5-methyl-1H-pyrazol-3-ylamino)-7-(piperidin-4-yloxy)quinazolin-2-yl)methanol] | ≤ 0.001 | 0.1 to 0.5 | ≤ 0.01 | > 0.2
O=C(c1cccc(F)c1)c1nc(Nc2cc[nH]n2)c2ccccc2n1 [Example 2, (4-(1H-pyrazol-3-ylamino)quinazolin-2-yl)(3-fluorophenyl)methanone] | > 0.01 | > 0.5 | > 0.1 | > 0.2
N#Cc1cc(Nc2nc(C(O)c3ccc(F)cc3)nc3ccccc23)n[nH]1 (racemic) [Example 15, (R,S)-3-(2-((4-fluorophenyl)(hydroxy)methyl)quinazolin-4-ylamino)-1H-pyrazole-5-carbonitrile] | > 0.01 | > 0.5 | > 0.1 | > 0.2
COCCOc1ccc2c(Nc3cc(C)[nH]n3)nc(C(O)c3ccc(F)cc3)nc2c1 (racemic) [Example 42, (R,S)-(4-fluorophenyl)(7-(2-methoxyethoxy)-4-(5-methyl-1H-pyrazol-3-ylamino)quinazolin-2-yl)methanol] | ≤ 0.001 | ≤ 0.1 | ≤ 0.01 | > 0.2
COc1ccc2c(Nc3cc(C)[nH]n3)nc(C(=O)c3ccc(F)cc3)nc2c1 [Example 30, (4-fluorophenyl)(7-methoxy-4-(5-methyl-1H-pyrazol-3-ylamino)quinazolin-2-yl)methanone] | 0.001 to 0.01 | ≤ 0.1 | 0.01 to 0.1 | > 0.2
Cc1cc(Nc2nc(C(=O)c3ccc(F)cc3)nc3cc(O)ccc23)n[nH]1 [Example 37, (4-fluorophenyl)(7-hydroxy-4-(5-methyl-1H-pyrazol-3-ylamino)quinazolin-2-yl)methanone] | ≤ 0.001 | ≤ 0.1 | 0.01 to 0.1 | > 0.2
Cc1cc(Nc2nc(C(O)c3ccc(F)cc3)nc3ccccc23)n[nH]1 (racemic) [Example 12, (R,S)-(4-fluorophenyl)(4-(5-methyl-1H-pyrazol-3-ylamino)quinazolin-2-yl)methanol hydrochloride] |  | ≤ 0.1 |  | 0.05 to 0.2
Cc1cc(Nc2nc(C(F)(F)c3ccc(F)cc3)nc3ccccc23)n[nH]1 [Example 8, 2-(difluoro(4-fluorophenyl)methyl)-N-(5-methyl-1H-pyrazol-3-yl)quinazolin-4-amine] | ≤ 0.001 | ≤ 0.1 | ≤ 0.01 | > 0.2
OC(c1ccc(F)cc1)c1nc(Nc2cc[nH]n2)c2ccc(I)cc2n1 (racemic) [Example 23, (R,S)-(4-(1H-pyrazol-3-ylamino)-7-iodoquinazolin-2-yl)(4-fluorophenyl)methanol] | 0.001 to 0.01 | 0.1 to 0.5 | > 0.1 | > 0.2
Cc1cc(Nc2nc(C(O)c3ccc(F)cc3)nc3cc(OCCO)ccc23)n[nH]1 (racemic) [Example 39, (R,S)-2-(2-((4-fluorophenyl)(hydroxy)methyl)-4-(5-methyl-1H-pyrazol-3-ylamino)quinazolin-7-yloxy)ethanol] | ≤ 0.001 | ≤ 0.1 | ≤ 0.01 | > 0.2
Cc1cc(Nc2nc(C(O)c3ccc(F)cc3)nc3c(F)cccc23)n[nH]1 (racemic) [Example 61, (R,S)-(8-fluoro-4-(5-methyl-1H-pyrazol-3-ylamino)quinazolin-2-yl)(4-fluorophenyl)methanol] | ≤ 0.001 | 0.1 to 0.5 | 0.01 to 0.1 | 
OC(c1ccc(F)cc1)c1nc(Nc2cc[nH]n2)c2cc(F)ccc2n1 (racemic) [Example 55, (R,S)-(4-(1H-pyrazol-3-ylamino)-6-fluoroquinazolin-2-yl)(4-fluorophenyl)methanol] | 0.001 to 0.01 | > 0.5 | > 0.1 | 
